Results on one molecule are retold here after patent US7544666B2, “NAP derivatives” (Industrial Technology Research Institute, priority 2005, dated 2009).

Data set [1] deals with Caco-2 cell. As to the kind of experiment: Stability in the Caco-2 cell system. Particulars: 4-hour incubation in Caco-2 Transwell; relative to initial conc. = 100.00 (500 μM). Type of data set: in vitro ADME, human. A digest of the protocol:
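Compounds at 500 μM initial concentration were incubated 4 h at 37 °C in HBSS alone or on the apical side of Caco-2 monolayers (cultured 18–26 days, TEER over 350 Ω×cm^2). Apical and basolateral levels were quantified by reverse-phase HPLC at 210 nm against the initial concentration.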

The subject of data set [2] is scopolamine-induced amnesia rats. Description: Morris water maze in scopolamine-induced amnesia rats. Type of data set: in vivo, rat. The conditions noted are these: 0.25 mg/kg subcutaneous, 5 min after scopolamine 1 mg/kg i.p.; FIG. 11. As for the experimental part:
Scopolamine-induced amnesia […] were used in combination of Morris water maze, a memory and behavior analysis system, to assess the in vivo effects of the NAP derivative BMEC-NAP0701 and NAP.
Sprague-Dawley male rats with body weight of 220-250 g obtained from the National Laboratory Animal Center, Taiwan, were caged in an air-conditioned housing with a temperature of 23±1° C. and kept on an alternating 12-hour light and 12-hour dark schedule with sufficient feed and water. […]
Morris Water Maze was performed with a water maze device containing a stainless pool with a size of 160 cm in diameter, 50 cm in height, and 15 mm in thickness of the wall and a platform with a size of 11 cm in diameter, and 22 cm in height. […] The swimming time and track were recorded by VEDEOMEX-V video tracing system, video recorder, and monitor (Columbus Instruments) and analyzed by Water Maze Program (Columbus Instruments). […]
Late of the third day: Two to four hours after the third day training, the platform was removed from the pool. The trained rats were separately sent to quadrant I and the swimming track was recorded for 60 sec. The time spent in finding the original platform was also recorded. […]
Early of the fifth day: The platform was placed in the quadrant II and submerged beneath water level about 1 cm. The rats were separately sent to quadrant I and the time spent in finding the platform was recorded. […]

Consider `CC[C@H](C)[C@H](NC(=O)[C@H](CO)NC(=O)[C@@H](NC(=O)[C@@H]1CCCN1C(=O)[C@H](C)NC(=O)[C@@H](N)CC(N)=O)C(C)C)C(=O)N1CCC[C@H]1C(=O)N[C@@H](CCC(N)=O)C(=O)O` [BMEC-NAP, H-NAPVSIPQ-OH, reference compound], for which, in data set [1], the “Conc. after 4-hour in Caco-2 cells” value was 42.49. The “memory improving effect (time spent in finding the platform vs scopolamine-induced rats)” value in data set [2] is “memory improving effect in vivo”.
